Measured values from patent US20170042193A1, “Pet Food Compositions Having Antimicrobial Activity” (priority 2010, published 2017).
Like-named read-outs stand apart in the source and are kept apart here.

Legend:
Format in all cases: cell-based
[1] = test system: Salmonella (S. aarhus, S. muenster E1 and S. worthington); set-up: key to Salmonella growth or inhibition (MIC test): −: negative sign means inhibition; +: positive sign denotes growth
Protocol: The minimum inhibitory concentration (MIC) of an antimicrobial ingredient is defined as the maximum dilution of the product that will still inhibit the growth of Salmonella. Serial dilutions (0-3%, except for oregano 0-0.3%) were made of the AMI in bacterial growth media and poured in test tubes. The test organisms (S. aarhus, S. muenster E1 and S. worthington) were then added to the dilutions of the AMI ingredients to a final concentration of 10^6 or 10^3 cfu/g, incubated overnight at 30° C., and scored for growth by turbidity or plate counts.
Minimum Inhibitory Concentration was conducted for 10^3 and 10^6 cfu/g Salmonella. Results reported as negative sign means inhibition, while positive sign denotes growth.

[2] = test system: Salmonella (S. aarhus, S. muenster E1 & S. worthington)
Text: This test is typically used for antibiotic sensitivity in bacteria and was adapted to measure Salmonella growth suppression by ingredients with potential antimicrobial (AMI) activity. Discs of filter paper, approximately 5 mm in diameter, were soaked in an AMI at 1%, 2%, and 3%, except for oregano, which was soaked at 0.1%, 0.2% and 0.4% solution and placed on a Petri dish with standard methods agar with tetraphenyltetrazolium (TTC) that has been smeared with a standardized suspension of Salmonella (S. aarhus, S. muenster E1 & S. worthington). Efficacy of the AMI was validated by measuring how closely the Salmonella cultures grew with respect to the saturated filter paper.
Ingredients were screened for antimicrobial activity using the Disc Diffusion Test. Solutions of 1%, 2%, and 3% were prepared for each of these ingredients, except for oregano, which was prepared at 0.1%, 0.2%, and 0.4%. Soaking of the disks, placing them on a Standard Methods agar plate with TTC smeared with Salmonella and overnight incubation were done as discussed above. Efficacy of these ingredients was determined by measuring the clear zones (mm) around the disks (Table 2).

[3] = test system: Salmonella (S. aarhus, S. muenster E1 & S. worthington); remark: listed apart in the source
Protocol: The kibble diffusion test has similar principles as the disk diffusion method. […] […] Efficacy of the AMI was validated by measuring how closely the Salmonella cultures grew with respect to the saturated kibbles.
Commercial canine and feline adult pet food compositions in the form of kibbles were coated with potential AMIs. […] After incubation overnight at 30° C., plates were analyzed for presence of clear zones around the kibbles.

[4] = 10^3 cfu/g Salmonella, antimicrobial level 0.03%
[5] = 10^3 cfu/g Salmonella, antimicrobial level 0.15%
[6] = 10^3 cfu/g Salmonella, antimicrobial level 0.3%
[7] = 10^3 cfu/g Salmonella, antimicrobial level 0.9%
[8] = 10^3 cfu/g Salmonella, antimicrobial level 1.5%
[9] = 10^3 cfu/g Salmonella, antimicrobial level 2.1%
[10] = 10^3 cfu/g Salmonella, antimicrobial level 3%
[11] = 10^3 cfu/g Salmonella, antimicrobial level […]
[12] = 10^6 cfu/g Salmonella, antimicrobial level 0.03%
[13] = 10^6 cfu/g Salmonella, antimicrobial level 0.15%
[14] = 10^6 cfu/g Salmonella, antimicrobial level 0.3%
[15] = 10^6 cfu/g Salmonella, antimicrobial level 0.9%
[16] = 10^6 cfu/g Salmonella, antimicrobial level 1.5%
[17] = 10^6 cfu/g Salmonella, antimicrobial level 2.1%
[18] = 10^6 cfu/g Salmonella, antimicrobial level 3%
[19] = 10^6 cfu/g Salmonella, antimicrobial level […]

Salmonella growth or inhibition (MIC test) [1, 4]	Salmonella growth or inhibition (MIC test) [1, 5]	Salmonella growth or inhibition (MIC test) [1, 6]	Salmonella growth or inhibition (MIC test) [1, 7]	Salmonella growth or inhibition (MIC test) [1, 8]	Salmonella growth or inhibition (MIC test) [1, 9]	Salmonella growth or inhibition (MIC test) [1, 10]	Salmonella growth or inhibition (MIC test) [1, 11]	Salmonella growth or inhibition (MIC test) [1, 12]	Salmonella growth or inhibition (MIC test) [1, 13]	Salmonella growth or inhibition (MIC test) [1, 14]	Salmonella growth or inhibition (MIC test) [1, 15]	Salmonella growth or inhibition (MIC test) [1, 16]	Salmonella growth or inhibition (MIC test) [1, 17]	Salmonella growth or inhibition (MIC test) [1, 18]	Salmonella growth or inhibition (MIC test) [1, 19]	Structure (SMILES)	other results
−	−	−	−	−	−	−	−	−	−	−	−	−	−	−	−	CCCCCCCCCCCC(=O)N[C@@H](CCCN=C(N)N)C(=O)OCC [Lauric Arginate]	MIC needed to inhibit Salmonella ([1]; 10^3 and 10^6 cfu/g Salmonella): 0.15%
+	+	+	−	−	−	−	−	+	+	+	−	−	−	−	−	O=P(O)(O)O [Inorganic Acid (Phosphoric acid), Phosphoric Acid]	clear zone around disk, Partial ([2]; R 1 (*3 replicates)): 9.33 mm; clear zone around disk, Total ([2]; R 1 (*3 replicates)): 16.67 mm; clear zone around disk, Partial ([2]; R 2): 14.33 mm; clear zone around disk, Total ([2]; R 2): 24.0 mm; clear zone around disk, Partial ([2]; R 3): 21.0 mm; clear zone around disk, Total ([2]; R 3): 28.33 mm; Antimicrobial activity against Salmonella, decreasing order ([2]; order printed: Phosphoric acid>Phenols, pH 4.25-4.85>Oleoresin Oregano>92% Sodium Lactate and 6% Sodium Diacetate>Phenols, pH 4.8-6.0): Antimicrobial activity against Salmonella was observed; inhibition of Salmonella, clear zone around the kibbles ([3]; coated kibbles, overnight at 30° C.): inhibited Salmonella; Zone of Inhibition-Diameter, Mean ([3]; kibble coated, 3%): 8 mm; Zone of Inhibition-Diameter, REP I Plate 1 ([3]; kibble coated, 3%): 9 mm; Zone of Inhibition-Diameter, REP I Plate 2 ([3]; kibble coated, 3%): 7 mm; Zone of Inhibition-Diameter, REP II Plate 1 ([3]; kibble coated, 3%): 7 mm; Zone of Inhibition-Diameter, REP II Plate 2 ([3]; kibble coated, 3%): 9 mm; Zone of Inhibition-Diameter, REP III Plate 1 ([3]; kibble coated, 3%): 9 mm; Zone of Inhibition-Diameter, REP III Plate 2 ([3]; kibble coated, 3%): 7 mm
